Measured values from publication PMC9426524 (mBio, 2022).

How the values were obtained:
Bacillus subtilis NadD = Bacillus subtilis NadD (Bacillus subtilis, UniProt P54455); format: biochemical
CoADR (JCVISYN3A_0887) = format: biochemical, Mycoplasma mycoides subsp. capri; details: pH 7.5
human DJ-1 = biological target: T1, human DJ-1 (Homo sapiens, UniProt Q99497); test: deglycase assay; format: biochemical; details: cited from earlier work
T1 construct: gene PARK7; recombinant; details in supplement
T1 sequence (Q99497 1-189 limits assumed): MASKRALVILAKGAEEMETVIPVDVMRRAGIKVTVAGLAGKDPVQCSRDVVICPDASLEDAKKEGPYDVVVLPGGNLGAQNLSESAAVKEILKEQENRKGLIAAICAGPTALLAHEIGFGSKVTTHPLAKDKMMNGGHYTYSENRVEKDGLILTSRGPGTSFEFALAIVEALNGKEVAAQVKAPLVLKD

[1] = tested on: JCVISYN3A_0400 (DJ-1 homolog); format: biochemical, Mycoplasma mycoides subsp. capri

Bacillus subtilis NadD, sequence (P54455 whole entry): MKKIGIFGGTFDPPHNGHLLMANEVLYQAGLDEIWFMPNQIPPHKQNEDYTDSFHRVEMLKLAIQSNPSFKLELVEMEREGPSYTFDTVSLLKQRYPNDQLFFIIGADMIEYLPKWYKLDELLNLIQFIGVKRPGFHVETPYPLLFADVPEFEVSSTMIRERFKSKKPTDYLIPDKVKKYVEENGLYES

SMILES: Nc1ncnc2c1ncn2[C@@H]1O[C@H](COP(=O)(O)OP(=O)(O)OP(=O)(O)O)[C@@H](O)[C@H]1O [ATP]
- relative activity (Bacillus subtilis NadD): whereas B. subtilis NadD strongly preferred ATP

SMILES: CC(C)(COP(=O)(O)OP(=O)(O)OC[C@H]1O[C@@H](n2cnc3c(N)ncnc32)[C@H](O)[C@@H]1OP(=O)(O)O)[C@@H](O)C(=O)NCCC(=O)NCCSSCCNC(=O)CCNC(=O)[C@H](O)C(C)(C)COP(=O)(O)OP(=O)(O)OC[C@H]1O[C@@H](n2cnc3c(N)ncnc32)[C@H](O)[C@@H]1OP(=O)(O)O [CoAD]
- Km (CoADR (JCVISYN3A_0887)): 170 µM

SMILES: CC(=O)C(O)SCCNC(=O)CCNC(=O)[C@H](O)C(C)(C)COP(=O)(O)OP(=O)(O)OC[C@H]1O[C@@H](n2cnc3c(N)ncnc32)[C@H](O)[C@@H]1OP(=O)(O)O (stereo partly shown) [methylglyoxal-CoA hemithioacetal]
- Km (human DJ-1): 144 ± 64 µM

SMILES: CC(=O)C=O [methylglyoxal]
- Km [1]: 1230 ± 300 µM
